Test results from patent US12264134B2 (Merck Sharp & Dohme LLC, priority 2018, dated 2025).

The compounds below were run against IDO1 (Homo sapiens, UniProt P14902) (assay: IDO1 Cellular Assay in HeLa Cells Stimulated with IFNγ). Details: read-out: HeLa Cell Potency, IC50.
Format: cell-based

Sequence of IDO1 (P14902 whole entry): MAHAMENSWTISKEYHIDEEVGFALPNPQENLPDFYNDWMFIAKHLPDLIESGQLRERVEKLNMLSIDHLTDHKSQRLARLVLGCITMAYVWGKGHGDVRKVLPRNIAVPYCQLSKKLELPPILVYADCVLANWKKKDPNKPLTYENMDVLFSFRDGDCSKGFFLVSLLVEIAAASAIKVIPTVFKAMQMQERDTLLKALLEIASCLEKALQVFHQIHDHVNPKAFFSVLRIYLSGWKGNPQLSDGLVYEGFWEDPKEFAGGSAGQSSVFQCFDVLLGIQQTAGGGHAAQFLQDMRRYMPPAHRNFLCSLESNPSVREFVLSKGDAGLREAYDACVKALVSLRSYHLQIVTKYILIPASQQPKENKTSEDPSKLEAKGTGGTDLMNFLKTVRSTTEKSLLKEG

IC50	Structure (SMILES)
6.33 nM	Cc1cccc(N2CCN(C(=O)Cn3nc(C(=O)N4CCCC(N5CCNC5=O)C4)c4c3C[C@H]3C[C@@H]43)CC2)c1C (stereo partly drawn) [Example 226, 1-{1-[(3bR,4aR)-1-{2-[4-(2,3-dimethylphenyl)piperazin-1-yl]-2-oxoethyl}-3b,4,4a,5-tetrahydro-1H-cyclopropa[3,4]cyclopenta[1,2-c]pyrazole-3-carbonyl]piperidin-3-yl}imidazolidin-2-one]
2.19 nM	Cc1cccc(N2CCN(C(=O)Cn3nc(C(=O)N4CCC5(CC4)CNC(=O)N5C)c4c3C[C@H]3C[C@@H]43)CC2)c1C [Example 227, 8-[(3bR,4aR)-1-{2-[4-(2,3-dimethylphenyl)piperazin-1-yl]-2-oxoethyl}-3b,4,4a,5-tetrahydro-1H-cyclopropa[3,4]cyclopenta[1,2-c]pyrazole-3-carbonyl]-1-methyl-1,3,8-triazaspiro[4.5]decan-2-one]
1 nM	Cc1cccc(N2CCN(C(=O)Cn3nc(C(=O)N4CCC(N5CCCC5=O)CC4)c4c3C[C@H]3C[C@@H]43)CC2)c1C [Example 228, 1-{2-[(3bR,4aR)-1-{2-[4-(2,3-dimethylphenyl)piperazin-1-yl]-2-oxoethyl}-3b,4,4a,5-tetrahydro-1H-cyclopropa[3,4]cyclopenta[1,2-c]pyrazole-3-carbonyl]piperidin-4-yl}pyrrolidin-2-one]
4.38 nM	Cc1cccc(N2CCN(C(=O)Cn3nc(C(=O)N4CC[C@@H](O)C[C@H]4C)c4c3C[C@H]3C[C@@H]43)CC2)c1C [Example 231, 1-[4-(2,3-dimethylphenyl)piperazin-1-yl]-2-{(3bR,4aR)-3-[(2R,4R)-4-hydroxy-2-methylpiperidine-1-carbonyl]-3b,4,4a,5-tetrahydro-1H-cyclopropa[3,4]cyclopenta[1,2-c]pyrazol-1-yl}ethan-1-one]
61.4 nM	Cc1cccc(N2CCN(C(=O)Cn3nc(C(=O)N4CC5(CNC5)C4)c4c3C[C@H]3C[C@@H]43)CC2)c1C [Example 232, 2-[(3bR,4aR)-3-(2,6-diazaspiro[3.3]heptane-2-carbonyl)-3b,4,4a,5-tetrahydro-1H-cyclopropa[3,4]cyclopenta[1,2-c]pyrazol-1-yl]-1-[4-(2,3-dimethylphenyl)piperazin-1-yl]ethan-1-one]
2.33 nM	Cc1cccc(N2CCN(C(=O)Cn3nc(C(=O)N4CCC(C(F)F)C4)c4c3C[C@H]3C[C@@H]43)CC2)c1C (stereo partly drawn) [Example 233, 2-{(3bR,4aR)-3-[3-(difluoromethyl)pyrrolidine-1-carbonyl]-3b,4,4a,5-tetrahydro-1H-cyclopropa[3,4]cyclopenta[1,2-c]pyrazol-1-yl}-1-[4-(2,3-dimethylphenyl)piperazin-1-yl]ethan-1-one]
55 nM	Cc1cccc(N2CCN(C(=O)Cn3nc(C(=O)N4CCC5NCC5C4)c4c3C[C@H]3C[C@@H]43)CC2)c1C (stereo partly drawn) [Example 236, 2-[(3bR,4aR)-3-(3,7-diazaspiro[4.2.0]octane-3-carbonyl)-3b,4,4a,5-tetrahydro-1H-cyclopropa[3,4]cyclopenta[1,2-c]pyrazol-1-yl]-1-[4-(2,3-dimethylphenyl)piperazin-1-yl]ethan-1-one]
79.1 nM	Cc1cccc(N2CCN(C(=O)Cn3nc(C(=O)N4CC[C@H]5[C@@H](C4)NC(=O)N5C)c4c3C[C@H]3C[C@@H]43)CC2)c1C [Example 237, (3aR,7aS)-5-[(3bR,4aR)-1-{2-[4-(2,3-dimethylphenyl)piperazin-1-yl]-2-oxoethyl}-3b,4,4a,5-tetrahydro-1H-cyclopropa[3,4]cyclopenta[1,2-c]pyrazole-3-carbonyl]-1-methyloctahydro-2H-imidazo[4,5-c]pyridin-2-one]
6.53 nM	Cc1cccc(N2CCN(C(=O)Cn3nc(C(=O)N4CCC5NC(=O)OCC5C4)c4c3C[C@H]3C[C@@H]43)CC2)c1C (stereo partly drawn) [Example 239, 6-[(3bR,4aR)-1-{2-[4-(2,3-dimethylphenyl)piperazin-1-yl]-2-oxoethyl}-3b,4,4a,5-tetahydro-1H-cyclopropa[3,4]cyclopenta[1,2-c]pyrazole-3-carbonyl]octahydro-2H-pyrido[4,3-d][1,3]oxazin-2-one]
13.3 nM	Cc1cccc(N2CCN(C(=O)Cn3nc(C(=O)N4CCC5NC(=O)OCC5C4)c4c3C[C@H]3C[C@@H]43)CC2)c1C (stereo partly drawn) [Example 240, 6-[(3bR,4aR)-1-{2-[4-(2,3-dimethylphenyl)piperazin-1-yl]-2-oxoethyl}-3b,4,4a,5-tetrahydro-1H-cyclopropa[3,4]cyclopenta[1,2-c]pyrazole-3-carbonyl]octahydro-2H-pyrido[4,3-d][1,3]oxazin-2-one]
164 nM	CN[C@H]1CCCN(C(=O)c2nn(CC(=O)N3CCN(c4cccc(C)c4C)CC3)c3c2[C@@H]2C[C@@H]2C3)C1 [Example 241, 1-[4-(2,3-dimethylphenyl)piperazin-1-yl]-2-{(3bR,4aR)-3-[(3S)-3-(methylamino)piperidine-1-carbonyl]-3b,4,4a,5-tetrahydro-1H-cyclopropa[3,4]cyclopenta[1,2-c]pyrazol-1-yl}ethan-1-one]
101 nM	Cc1cccc(N2CCN(C(=O)Cn3nc(C(=O)N4CCC(NC(=O)NN)CC4)c4c3C[C@H]3C[C@@H]43)CC2)c1C [Example 242, N-{1-[(3bR,4aR)-1-{2-[4-(2,3-dimethylphenyl)piperazin-1-yl]-2-oxoethyl}-3b,4,4a,5-tetrahydro-1H-cyclopropa[3,4]cyclopenta[1,2-c]pyrazole-3-carbonyl]piperidin-4-yl}hydrazinecarboxamide]
160 nM	Cc1cccc(N2CCN(C(=O)Cn3nc(C(=O)N4CC5(CCN(C)C5)C4)c4c3C[C@H]3C[C@@H]43)CC2)c1C [Example 243, 1-[4-(2,3-dimethylphenyl)piperazin-1-yl]-2-[(3bR,4aR)-3-(6-methyl-2,6-diazaspiro[3.4]octane-2-carbonyl)-3b,4,4a,5-tetrahydro-1H-cyclopropa[3,4]cyclopenta[1,2-c]pyrazol-1-yl]ethan-1-one]
4.77 nM	Cc1cccc(N2CCN(C(=O)Cn3nc(C(=O)N4CCC5(CC4)CNC(=O)CO5)c4c3C[C@H]3C[C@@H]43)CC2)c1C [Example 244, 9-[(3bR,4aR)-1-{2-[4-(2,3-dimethylphenyl)piperazin-1-yl]-2-oxoethyl}-3b,4,4a,5-tetrahydro-1H-cyclopropa[3,4]cyclopenta[1,2-c]pyrazole-3-carbonyl]-1-oxa-4,9-diazaspiro[5.5]undecan-3-one]
3.01 nM	Cc1cccc(N2CCN(C(=O)Cn3nc(C(=O)N4CCC(C)(O)CC4C)c4c3C[C@H]3C[C@@H]43)CC2)c1C (stereo partly drawn) [Example 245, 1-[4-(2,3-dimethylphenyl)piperazin-1-yl]-2-[(3bR,4aR)-3-(4-hydroxy-2,4-dimethylpiperidine-1-carbonyl)-3b,4,4a,5-tetrahydro-1H-cyclopropa[3,4]cyclopenta[1,2-c]pyrazol-1-yl]ethan-1-one]
3.27 nM	Cc1cccc(N2CCN(C(=O)Cn3nc(C(=O)N4CCN5CCCC[C@@H]5C4)c4c3C[C@H]3C[C@@H]43)CC2)c1C [Example 246, 1-[4-(2,3-dimethylphenyl)piperazin-1-yl]-2-{(3bR,4aR)-3-[(9aR)-octahydro-2H-pyrido[1,2-a]pyrazine-2-carbonyl]-3b,4,4a,5-tetrahydro-1H-cyclopropa[3,4]cyclopenta[1,2-c]pyrazol-1-yl}ethan-1-one]
0.7 nM	Cc1cccc(N2CCN(C(=O)Cn3nc(C(=O)N4CCC(C)(CO)CC4)c4c3C[C@H]3C[C@@H]43)CC2)c1C [Example 248, 1-[4-(2,3-dimethylphenyl)piperazin-1-yl]-2-{(3aR,4aR)-3-[4-(hydroxymethyl)-4-methylpiperidine-1-carbonyl]-3b,4,4a,5-tetrahydro-1H-cyclopropa[3,4]cyclopenta[1,2-c]pyrazol-1-yl}ethan-1-one]
0.62 nM	Cc1cccc(N2CCN(C(=O)Cn3nc(C(=O)N4CCC(CO)CC4)c4c3C[C@H]3C[C@@H]43)CC2)c1C [Example 249, 1-[4-(2,3-dimethylphenyl)piperazin-1-yl]-2-{(3bR,4aR)-3-[4-(hydroxymethyl)piperidine-1-carbonyl]-3b,4,4a,5-tetrahydro-1H-cyclopropa[3,4]cyclopenta[1,2-c]pyrazol-1-yl}ethan-1-one]
0.94 nM	Cc1cccc(N2CCN(C(=O)Cn3nc(C(=O)N4CCN(CC(F)(F)F)CC4)c4c3C[C@H]3C[C@@H]43)CC2)c1C [Example 250, 1-[4-(2,3-dimethylphenyl)piperazin-1-yl]-2-{(3bR,4aR)-3-[4-(2,2,2-trifluoroethyl)piperazine-1-carbonyl]-3b,4,4a,5-tetrahydro-1H-cyclopropa[3,4]cyclopenta[1,2-c]pyrazol-1-yl}ethan-1-one]
0.94 nM	Cc1cccc(N2CCN(C(=O)Cn3nc(C(=O)N4CC[C@H](CO)C4)c4c3C[C@H]3C[C@@H]43)CC2)c1C [Example 251, 1-[4-(2,3-dimethylphenyl)piperazin-1-yl]-2-{(3bR,4aR)-3-[(3S)-3-(hydroxymethyl)pyrrolidine-1-carbonyl]-3b,4,4a,5-tetrahydro-1H-cyclopropa[3,4]cyclopenta[1,2-c]pyrazol-1-yl}ethan-1-one]
1.5 nM	Cc1cccc(N2CCN(C(=O)Cn3nc(C(=O)N4CC[C@@H](CO)C4)c4c3C[C@H]3C[C@@H]43)CC2)c1C [Example 252, 1-[4-(2,3-dimethylphenyl)piperazin-1-yl]-2-{(3bR,4aR)-3-[(3R)-3-(hydroxymethyl)pyrrolidine-1-carbonyl]-3b,4,4a,5-tetrahydro-1H-cyclopropa[3,4]cyclopenta[1,2-c]pyrazol-1-yl}ethan-1-one]
1.52 nM	Cc1cccc(N2CCN(C(=O)Cn3nc(C(=O)N4CCC(N5CCNC5=O)CC4)c4c3C[C@H]3C[C@@H]43)CC2)c1C [Example 253, 1-{1-[(3bR,4aR)-1-{2-[4-(2,3-dimethylphenyl)piperazin-1-yl]-2-oxoethyl}-3b,4,4a,5-tetrahydro-1H-cyclopropa[3,4]cyclopenta[1,2-c]pyrazole-3-carbonyl]piperidin-4-yl}imidazolidin-2-one]
1.71 nM	CNC(=O)C1CCN(C(=O)c2nn(CC(=O)N3CCN(c4cccc(C)c4C)CC3)c3c2[C@@H]2C[C@@H]2C3)CC1 [Example 254, 1-[(3bR,4aR)-1-{2-[4-(2,3-dimethylphenyl)piperazin-1-yl]-2-oxoethyl}-3b,4,4a,5-tetrahydro-1H-cyclopropa[3,4]cyclopenta[1,2-c]pyrazol-3-carbonyl]-N-methylpiperidine-4-carboxamide]
